# US20250302869A1, “USE OF INHALED NITRIC OXIDE (INO) FOR TREATING PATIENTS WITH PULMONARY HY[…] SARCOIDOSIS (PH-SARC)” (Mallinckrodt Pharmaceuticals Ireland Limited, priority 2022, published 2025)
# Key:
# [1] = tested on: patients with pulmonary hypertension associated with sarcoidosis (PH-SARC); experiment: Acute iNO dose escalation study, right heart catheterization hemodynamics (Phase 2, Part 1); assay type: in vivo, human; conditions: for PVR change from baseline: pulsed, 10 min, baseline median 329.4; for PVR change from baseline / CO percent change from baseline / PCWP percent change from baseline / PVR percent change from baseline / mPAP percent change from baseline / CO change from baseline / PCWP change from baseline / mPAP change from baseline: median (IQR); for CO change from baseline: baseline median 5.9; for PCWP change from baseline: baseline median 13.5; for mPAP change from baseline: baseline median 37.2
# Source text: Patients with sarcoidosis may develop pulmonary hypertension (PH) which is associated with an impaired quality of life and limitations on activities of daily living. The Phase 2 trial, was designed to determine the safety and clinical efficacy of pulsed iNO, a potent and well-established vasodilator, on sarcoidosis-associated with PH patients, as well as to evaluate the safe and effective dose of iNO in subjects on long term oxygen therapy (LTOT) with possible or definite pulmonary hypertension associated with sarcoidosis.
# Sarcoidosis patients with PH on prior right heart catherization (RHC) or on echocardiography were enrolled in a two-part open label study. Patients underwent RHC, to establish baseline hemodynamics including mean pulmonary arterial pressure (mPAP), cardiac output (CO), pulmonary wedge pressure (PCWP) with derivation of pulmonary vascular resistance (PVR).
# (§1) Patients were administered acute escalating doses of pulsatile iNO via an INOpulse device starting at 30 mcg/kg ideal body weight/hr (iNO30) and increasing up to 125 mcg/kg ideal body weight/hr (iNO125) to assess the impact of each dose level on hemodynamic parameters. Patients were treated with iNO for 10 minutes per dose with a 10-minute washout between doses.
# Each dose level was followed by a washout period. All hemodynamic wave forms were reviewed by a blinded hemodynamic core lab for determination of end-exhalation PAP and PCWP. After the acute vasodilator study, subjects were eligible to participate in a long-term open label extension study at the dose of iNO found to be most beneficial by the RHC measurements, as determined by the investigator.
# (§2) During the Treatment Visit of Part 1 of the study, subjects were admitted to the cardiac catheterization suite/ICU/CCU and a Swan Ganz Catheter was inserted, and subjects were monitored during acute exposure to iNO at 30, 45, 75, 125 mcg/kg IBW/hr. Hemodynamic changes were monitored during this part of the study. The primary endpoint for Part 1 of the study was to assess the change in mean pulmonary artery pressure (mPAP), pulmonary capillary wedge pressure (PCWP), cardiac output (CO) and pulmonary vascular resistance (PVR) on iNO 30, 45, 75, 125 mcg/kg IBW/hr compared to baseline. The Safety Endpoint includes incidence and severity of treatment emergent adverse events (AEs), including those related to device deficiency, symptoms that may be due to rebound associated with acute withdrawal of iNO: systemic arterial oxygen desaturation, hypoxemia, bradycardia, tachycardia, systemic hypotension, shortness of breath, near-syncope, and syncope, and change in oxygen saturation and vital signs.
# The changes in hemodynamics were determined for absolute change (as shown in FIGS. 2A-2D) and percent change (as shown in FIGS. 2E-2H) from baseline in PVR, mPAP, CO and PCWP. The analysis depicted illustrates the change from baseline (box & whisker plot provides median, IQR, and min/max). Statistical analysis based on Wilcoxon […] was assessed between baseline and each dose as well as each dose and each prior dose and no correction was conducted for multiplicity.
# [2] = tested on: patients with pulmonary hypertension associated with sarcoidosis (PH-SARC); experiment: Safety and tolerability in the acute iNO dose escalation study; assay type: in vivo, human
# Method: as §1, §2
smiles,measurement,setting,value
"[N]=O [iNO, nitric oxide]",median mPAP reduction from baseline across the doses,"[1]; across the doses of iNO30 to iNO125, baseline median mPAP 37.2 mmHg",6-10%
same,patients demonstrating decreases in mPAP and PVR,"[1]; across the doses of iNO from iNO30 to iNO125, blinded core lab, 8 patients",all 8 patients demonstrated decreases in mPAP and PVR
same,PCWP across all doses,[1]; all doses iNO30 to iNO125,remained stable
same,cardiac output (CO) across all doses,[1]; all doses iNO30 to iNO125,remained stable
same,PVR change from baseline,[1]; iNO30 (30 mcg/kg IBW/hr),−19.2 (39.0) dyne*sec*cm-5
same,CO percent change from baseline,[1]; iNO30 (30 mcg/kg IBW/hr),−2.5% (11.2)
same,PCWP percent change from baseline,[1]; iNO30 (30 mcg/kg IBW/hr),−4.1% (29.1%)
same,PVR percent change from baseline,[1]; iNO30 (30 mcg/kg IBW/hr),−7.0% (10.6%)
same,mPAP percent change from baseline,[1]; iNO30 (30 mcg/kg IBW/hr),−7.1% (10.0%)
same,CO change from baseline,[1]; iNO30 (30 mcg/kg IBW/hr),−0.1 (0.6) L/min
same,PCWP change from baseline,[1]; iNO30 (30 mcg/kg IBW/hr),−1.0 (4.3) mmHg
same,mPAP change from baseline,[1]; iNO30 (30 mcg/kg IBW/hr),−2.7 (2.8) mmHg
same,PVR change from baseline,[1]; iNO45 (45 mcg/kg IBW/hr),−48.4 (84.6) dyne*sec*cm-5
same,CO percent change from baseline,[1]; iNO45 (45 mcg/kg IBW/hr),1.0% (6.5%)
same,PCWP percent change from baseline,[1]; iNO45 (45 mcg/kg IBW/hr),0.0% (20.5%)
same,mPAP percent change from baseline,[1]; iNO45 (45 mcg/kg IBW/hr),−10.6% (15.8%)
same,CO change from baseline,[1]; iNO45 (45 mcg/kg IBW/hr),0.0 (0.3) L/min
same,PCWP change from baseline,[1]; iNO45 (45 mcg/kg IBW/hr),0.0 (2.5) mmHg
same,mPAP change from baseline,[1]; iNO45 (45 mcg/kg IBW/hr),−4.0 (5.2) mmHg
same,median decrease of PVR from baseline,"[1]; iNO45 dose, range −54% to +22%, baseline median PVR 329 dyne*sec*cm-5",20%
same,PVR change from baseline,[1]; iNO75 (75 mcg/kg IBW/hr),−68.0 (92.7) dyne*sec*cm-5
same,CO percent change from baseline,[1]; iNO75 (75 mcg/kg IBW/hr),0.1% (6.1%)
same,PCWP percent change from baseline,[1]; iNO75 (75 mcg/kg IBW/hr),10.6% (29.5%)
same,PVR percent change from baseline,[1]; iNO75 (75 mcg/kg IBW/hr),−15.3% (37.7%)
same,mPAP percent change from baseline,[1]; iNO75 (75 mcg/kg IBW/hr),−6.3% (13.2%)
same,CO change from baseline,[1]; iNO75 (75 mcg/kg IBW/hr),0.0 (0.4) L/min
same,PCWP change from baseline,[1]; iNO75 (75 mcg/kg IBW/hr),1.5 (4.3) mmHg
same,mPAP change from baseline,[1]; iNO75 (75 mcg/kg IBW/hr),−2.3 (3.9) mmHg
same,PVR change from baseline,[1]; iNO125 (125 mcg/kg IBW/hr),−85.8 (67.1) dyne*sec*cm-5
same,CO percent change from baseline,[1]; iNO125 (125 mcg/kg IBW/hr),4.2% (14.6%)
same,PCWP percent change from baseline,[1]; iNO125 (125 mcg/kg IBW/hr),0.0% (30.7%)
same,PVR percent change from baseline,[1]; iNO125 (125 mcg/kg IBW/hr),−28.7% (20.8%)
same,mPAP percent change from baseline,[1]; iNO125 (125 mcg/kg IBW/hr),−6.4% (11.0%)
same,CO change from baseline,[1]; iNO125 (125 mcg/kg IBW/hr),0.2 (0.8) L/min
same,PCWP change from baseline,[1]; iNO125 (125 mcg/kg IBW/hr),0.0 (4.0) mmHg
same,mPAP change from baseline,[1]; iNO125 (125 mcg/kg IBW/hr),−3.0 (3.5) mmHg
same,median decrease of PVR from baseline,"[1]; iNO125 dose, range −43% to −5%, p=0.02 vs. baseline and prior dose",29%
same,tolerability,[2]; across all the doses iNO30 to iNO125,well-tolerated
same,adverse events or serious adverse events related to iNO,"[2]; acute doses iNO30 to iNO125, 8 patients",No adverse events or serious adverse events related to iNO were reported
